# Experimental data published in US9586931B2 (Merck Sharp & Dohme Corp., priority 2012, dated 2017).
# Biological target: T1, recombinant human GST-Syk (Homo sapiens, UniProt P43405)
# T1 construct: purchased Carna Biosciences 08-176
# Assay: Homogeneous Time-Resolved Fluorescence (HTRF) assay for the recombinant human Syk enzyme
# Type: biochemical
# Conditions: recombinant human GST-Syk 5 pM, ATP 25 μM, 10-dose titration 10 μM to 0.508 nM; read-out: rhSYK Activity IC50
# Protocol: Syk inhibition may be determined using the following assay protocol:
# Homogeneous Time-Resolved Fluorescence (HTRF) assay for the recombinant human Syk enzyme: A recombinant GST-hSyk fusion protein was used to measure potency of compounds to inhibit human Syk activity. […] Final volume of the reaction was 10 μL. Phosphorylation of the peptide was allowed to proceed for 45 minutes at room temperature. To quench the reaction and detect the phosphorylated product, 2 nM of a Europium-anti-phosphotyrosine antibody (Perkin Elmer #AD0161) and 70 nM SA-APC (Perkin-Elmer #CR130-100) were added together in 15 mM Tris pH 7.5, 40 mM EDTA, 0.01% tween 20. Final volume of the quenching solution was 10 μL. The resulting HTRF signal was measured after 30 minutes on an EnVision (Perkin-Elmer) reader using a time-resolved fluorescence protocol.
row,Compound,IC50
1,"Cc1cc(Nc2nccc(C(F)(F)F)n2)cc(-c2cn(C(C)C(=O)O)nn2)c1 (racemic) [Example 5.64, 2-[4-(3-methyl-5-{[4-(trifluoromethyl)pyrimidin-2-yl]amino}phenyl)-1H-1,2,3-triazol-1-yl]propanoic acid]",41.4 nM
2,"Cc1cc(Nc2nccc(C(F)(F)F)n2)cc(-c2cn(CC(O)CO)nn2)c1 (racemic) [Example 5.76, 3-[4-(3-methyl-5-{[4-(trifluoromethyl)pyrimidin-2-yl]amino}phenyl)-1H-1,2,3-triazol-1-yl]propane-1,2-diol]",32.4 nM
3,"Cc1cc(Nc2cc(C(F)(F)F)ccn2)nc(-c2cn(CC(=O)N3CCC(C(=O)O)CC3)nn2)c1 (racemic) [Example 5.80, 1-{[4-(4-methyl-6-{[4-(trifluoromethyl)pyridin-2-yl]amino}pyridin-2-yl)-1H-1,2,3-triazol-1-yl]acetyl}piperidine-4-carboxylic acid]",24.5 nM
4,"Cc1cc(Nc2cc(C(F)(F)F)ccn2)nc(-c2cn(CC(O)C(F)(F)F)nn2)c1 (racemic) [Example 5.83, 1,1,1-trifluoro-3-[4-(4-methyl-6-{[4-(trifluoromethyl)pyridin-2-yl]amino}pyridin-2-yl)-1H-1,2,3-triazol-1-yl]propan-2-ol]",4.4 nM
5,"Cc1cc(Nc2cc(C(F)(F)F)ccn2)nc(-c2cn(CC3CNC(=O)O3)nn2)c1 (racemic) [Example 5.84, 5-{[4-(4-methyl-6-{[4-(trifluoromethyl)pyridin-2-yl]amino}pyridin-2-yl)-1H-1,2,3-triazol-1-yl]methyl}-1,3-oxazolidin-2-one]",2.1 nM
6,"COC(=O)C(C)CCn1cc(-c2cc(C)cc(Nc3cc(C(F)(F)F)ccn3)n2)nn1 (racemic) [Example 5.85, methyl 2-methyl-4-[4-(4-methyl-6-{[4-(trifluoromethyl)pyridin-2-yl]amino}pyridin-2-yl)-1H-1,2,3-triazol-1-yl]butanoate]",80 nM
7,"Cc1cc(Nc2cc(C(F)(F)F)ccn2)nc(-c2cn(C3CCCCC3O)nn2)c1 (racemic) [Example 5.89, 2-[4-(4-methyl-6-{[4-(trifluoromethyl)pyridin-2-yl]amino}pyridin-2-yl)-1H-1,2,3-triazol-1-yl]cyclohexanol]",4 nM
8,"Cc1cc(Nc2cc(C(F)(F)F)ccn2)nc(-c2cn(CC(O)CF)nn2)c1 (racemic) [Example 5.93, 1-fluoro-3-[4-(4-methyl-6-{[4-(trifluoromethyl)pyridin-2-yl]amino}pyridin-2-yl)-1H-1,2,3-triazol-1-yl]propan-2-ol]",6 nM
9,"Cc1cc(Nc2cc(C(F)(F)F)ccn2)nc(-c2cn(CC(O)CO)nn2)c1 (racemic) [Example 5.95, 3-[4-(4-methyl-6-{[4-(trifluoromethyl)pyridin-2-yl]amino}pyridin-2-yl)-1H-1,2,3-triazol-1-yl]propane-1,2-diol]",7.9 nM
10,"Cc1cc(Nc2nccc(C(F)(F)F)n2)cc(-c2cn(CC(=O)N3[C@@H](C)COC[C@@H]3C)nn2)c1 (relative stereo) [Example 5.47, N-[3-(1-{2-[trans-3,5-dimethylmorpholin-4-yl]-2-oxoethyl}-1H-1,2,3-triazol-4-yl)-5-methylphenyl]-4-(trifluoromethyl)pyrimidin-2-amine]",80.2 nM
11,"Cc1cc(Nc2cc(C(F)(F)F)ccn2)nc(-c2cn(C3CCC(C(N)=O)C(C)(C)C3)nn2)c1 (single isomer, unassigned) [Example 1.4, 2,2-dimethyl-4-[4-(4-methyl-6-{[4-(trifluoromethyl)pyridin-2-yl]amino}pyridin-2-yl)-1H-1,2,3-triazol-1-yl]cyclohexanecarboxamide]",3.8 nM
12,"Cc1cc(Nc2cc(C(F)(F)F)ccn2)nc(-c2cn(C3CCC(C(N)=O)C(C)(C)C3)nn2)c1 (single isomer, unassigned) [Example 1.5, 2,2-dimethyl-4-[4-(4-methyl-6-{[4-(trifluoromethyl)pyridin-2-yl]amino}pyridin-2-yl)-1H-1,2,3-triazol-1-yl]cyclohexanecarboxamide]",8 nM
13,"Cc1cc(Nc2cc(C(F)(F)F)ccn2)nc(-c2cn(C3CCC(C(N)=O)C(C)(C)C3)nn2)c1 (single isomer, unassigned) [Example 1.6, 2,2-dimethyl-4-[4-(4-methyl-6-{[4-(trifluoromethyl)pyridin-2-yl]amino}pyridin-2-yl)-1H-1,2,3-triazol-1-yl]cyclohexanecarboxamide]",26.6 nM
14,"Cc1cc(Nc2cc(C(F)(F)F)ccn2)nc(-c2cn(C3CCC(C(N)=O)C(C)(C)C3)nn2)c1 (single isomer, unassigned) [Example 1.8, 2,2-dimethyl-4-[4-(4-methyl-6-{[4-(trifluoromethyl)pyridin-2-yl]amino}pyridin-2-yl)-1H-1,2,3-triazol-1-yl]cyclohexanecarboxamide]",5.8 nM
15,"Cc1cc(Nc2cc(C(F)(F)F)ccn2)nc(-c2cn(CC3(O)CCC(C(=O)O)C(C)(C)C3)nn2)c1 (single isomer, unassigned) [Example 3.1, (R or S) 4-hydroxy-2,2-dimethyl-4-{[4-(4-methyl-6-{[4-(trifluoromethyl)pyridin-2-yl]amino}pyridin-2-yl)-1H-1,2,3-triazol-1-yl]methyl}cyclohexanecarboxylic acid]",60.7 nM

# More lines, now with the values ahead:
row,IC50,Compound
1,21.2 nM,"Cc1cc(Nc2cc(C(F)(F)F)ccn2)nc(-c2cn(C3CCNC(=O)CC3)nn2)c1 (racemic) [Example 11.1, 5-[4-(4-Methyl-6-{[4-(trifluoromethyl)pyridin-2-yl]amino}pyridin-2-yl)-1H-1,2,3-triazol-1-yl]azepan-2-one]"
2,23.8 nM,"Cc1cc(Nc2cc(C(F)(F)F)ccn2)nc(-c2cn(C3CCNC(=O)CC3)nn2)c1 (racemic) [Example 11.2, 5-[4-(4-methyl-6-{[4-(trifluoromethyl)pyridin-2-yl]amino}pyridin-2-yl)-1H-1,2,3-triazol-1-yl]azepan-2-one]"
3,118 nM,"Cc1cc(Nc2cc(C(F)(F)F)ccn2)nc(-c2cn(C3CCNC(=O)CC3)nn2)c1 (racemic) [Example 11.3, 5-[4-(4-methyl-6-{[4-(trifluoromethyl)pyridin-2-yl]amino}pyridin-2-yl)-1H-1,2,3-triazol-1-yl]azepan-2-one]"
4,4.2 nM,"Cc1cc(Nc2cc(C(F)(F)F)ccn2)nc(-c2cn([C@@H]3CN(C(=O)CO)C[C@H]3O)nn2)c1 (racemic) [Example 13.1, (+/−)-2-Bydroxy-1-((3R,4R)-3-hydroxy-4-(4-(4-methyl-6-((4-(trifluoromethyl)pyridin-2-yl)amino)pyridin-2-yl)-1H-1,2,3-triazol-1-yl)pyrrolidin-1-yl)ethanone]"
5,55.4 nM,"Cc1cc(Nc2nccc(C(F)(F)F)n2)cc(-c2cn([C@@H]3CCC[C@H](O)C3)nn2)c1 (racemic) [Example 17.1, Racemic cis-3-(4-(3-methyl-5-((4-(trifluoromethyl)pyrimidin-2-yl)amino)phenyl)-1H-1,2,3-triazol-1-yl)cyclohexanol]"
6,32.3 nM,"Cc1cc(Nc2cc(C(F)(F)F)ccn2)nc(-c2cn(C3CNCC3O)nn2)c1 (racemic) [Example 19.1, (+/−)-(3S,4R)-4-(4-(4-Methyl-6-((4-(trifluoromethyl)pyridin-2-yl)amino)pyridin-2-yl)-1H-1,2,3-triazol-1-yl)pyrrolidin-3-ol]"
